Patent US20250346600A1, “TRICYCLIC DERIVATIVES AND RELATED USES” (MOMA Therapeutics, Inc., priority 2023, published 2025)

How the values were obtained:
[1] = tested on: HT29 cells; test: HT29 (MSS) 7 day viability, CellTiter Glo; assay type: cell-based; conditions: Homo sapiens, HT-29, 168 h, 7 days, read-out: HT29 (MSS) Viability 7 Day CTGAbs AC50
Outline: (§1)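 Luminescence read-out (CellTiter Glo) after 7-day compound exposure at 37 °C. Seeding density 50 cells/well for HCT116, 500 cells/well for HT29. Background from cell-free medium wells; IC50 by four-parameter logistic fit, geometric mean of at least 2 replicates.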

[2] = tested on: HCT116 cells; test: HCT116 (MSI) 7 day viability, CellTiter Glo; assay type: cell-based; conditions: Homo sapiens, HCT-116, 168 h, 7 days, read-out: HCT116 (MSI) Viability 7 Day Abs AC50
Outline: as §1

[3] = biological target: T1, Full length WRN protein (aa 2-1432) (Homo sapiens (Human), UniProt Q14191); test: WRN ATPase ADP-Glo biochemical assay, Assay Format B (100 μM ATP); conditions: 0.25 nM WRN, 100 nM C6.18 ssDNA, 60 min preincubation, read-out: ATPase ADPGlo AC50 (uM)- Assay Format B
T1 sequence (Q14191 2-1432): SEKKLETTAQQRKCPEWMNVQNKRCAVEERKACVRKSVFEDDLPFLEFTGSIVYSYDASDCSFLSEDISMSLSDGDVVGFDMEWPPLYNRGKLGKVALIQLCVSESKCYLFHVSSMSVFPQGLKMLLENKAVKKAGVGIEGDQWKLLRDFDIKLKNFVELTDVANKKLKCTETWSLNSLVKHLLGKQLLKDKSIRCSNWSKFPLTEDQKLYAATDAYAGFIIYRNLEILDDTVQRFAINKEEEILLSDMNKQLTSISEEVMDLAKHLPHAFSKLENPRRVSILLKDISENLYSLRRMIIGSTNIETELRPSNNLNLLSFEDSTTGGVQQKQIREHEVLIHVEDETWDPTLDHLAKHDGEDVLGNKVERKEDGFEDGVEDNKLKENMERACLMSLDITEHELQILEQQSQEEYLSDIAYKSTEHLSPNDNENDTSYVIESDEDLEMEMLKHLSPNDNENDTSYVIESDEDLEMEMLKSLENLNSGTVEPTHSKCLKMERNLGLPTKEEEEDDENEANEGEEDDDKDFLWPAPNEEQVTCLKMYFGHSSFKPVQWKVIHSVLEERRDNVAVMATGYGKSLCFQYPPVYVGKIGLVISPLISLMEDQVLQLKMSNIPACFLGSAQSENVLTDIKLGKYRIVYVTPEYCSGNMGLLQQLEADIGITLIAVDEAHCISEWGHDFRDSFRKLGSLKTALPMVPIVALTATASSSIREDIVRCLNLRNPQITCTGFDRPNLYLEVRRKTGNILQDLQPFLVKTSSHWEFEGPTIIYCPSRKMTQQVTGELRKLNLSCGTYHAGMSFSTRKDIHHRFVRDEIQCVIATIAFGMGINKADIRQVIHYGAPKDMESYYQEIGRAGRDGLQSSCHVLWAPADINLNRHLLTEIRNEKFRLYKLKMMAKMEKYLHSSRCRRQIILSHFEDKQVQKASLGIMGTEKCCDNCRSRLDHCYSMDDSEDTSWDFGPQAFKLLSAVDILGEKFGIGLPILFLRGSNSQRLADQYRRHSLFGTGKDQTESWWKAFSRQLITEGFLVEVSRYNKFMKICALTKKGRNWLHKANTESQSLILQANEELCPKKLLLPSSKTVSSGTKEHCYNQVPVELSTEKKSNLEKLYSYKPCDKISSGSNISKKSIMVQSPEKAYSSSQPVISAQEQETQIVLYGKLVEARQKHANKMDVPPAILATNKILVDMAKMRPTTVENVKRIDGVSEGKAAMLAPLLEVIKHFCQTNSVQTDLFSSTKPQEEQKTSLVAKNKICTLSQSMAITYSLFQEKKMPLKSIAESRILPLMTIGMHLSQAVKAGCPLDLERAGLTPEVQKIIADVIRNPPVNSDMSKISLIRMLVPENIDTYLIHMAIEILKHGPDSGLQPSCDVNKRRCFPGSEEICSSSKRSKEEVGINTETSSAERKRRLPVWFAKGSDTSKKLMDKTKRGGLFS

[4] = biological target: T1, Full length WRN protein (aa 2-1432); test: WRN ATPase ADP-Glo biochemical assay, Assay Format A (10 μM ATP); conditions: 0.25 nM WRN, 100 nM C6.18 ssDNA, 30 min preincubation, read-out: ATPase ADPGlo AC50 (uM)- Assay Format A
Outline: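 Sf9-expressed FLAG-AVI-TEV-tagged WRN (0.5 nM) preincubated 30 min with compound (11-point 3-fold dilution). Reaction started with 200 nM C6.18 39-mer ssDNA and 20 μM ATP (addition concentrations), run 30 min at room temperature. ADP measured by ADP-Glo luminescence; IC50 from four-parameter fit, geometric mean of ≥2 runs.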

C=CC(=O)N1CCc2nn(-c3ccc(C4CCC4)cc3O)c3c2C(C1)N(C(=O)c1ccc(OC(F)(F)F)cc1)CC3 (centres unmarked) [Compound 107, 1-(2-(4-cyclobutyl-2-hydroxyphenyl)-5-(4-(trifluoromethoxy)benzoyl)-2,3,4,5,5a,6,8,9-octahydro-7H-1,2,5,7-tetraazabenzo[cd]azulen-7-yl)prop-2-en-1-one]
AC50 [1]: > 3 µM
AC50 [2]: 0.1 to 0.25 µM
AC50 [3]: 0.015 to 0.055 µM
AC50 [4]: 0.005 to 0.015 µM

C=CC(=O)N1CCc2nn(-c3ccc(C4CC4)cc3)c3c2C(C1)N(C(=O)c1ccc(C(F)(F)F)nc1O)CC3 (centres unmarked) [Compound 109, 1-(2-(4-cyclopropylphenyl)-5-(2-hydroxy-6-(trifluoromethyl)nicotinoyl)-2,3,4,5,5a,6,8,9-octahydro-7H-1,2,5,7-tetraazabenzo[cd]azulen-7-yl)prop-2-en-1-one]
AC50 [1]: > 3 µM
AC50 [2]: 0.25 to 0.5 µM
AC50 [3]: 0.015 to 0.055 µM
AC50 [4]: 0.005 to 0.015 µM

C=CC(=O)N1CCc2nn(-c3ccc(C4CC4)cc3)c3c2C(C1)N(C(=O)c1cnc2c(C)nn(C)c2c1)CC3 (centres unmarked) [Compound 110, 1-(2-(4-cyclopropylphenyl)-5-(1,3-dimethyl-1H-pyrazolo[4,3-b]pyridine-6-carbonyl)-2,3,4,5,5a,6,8,9-octahydro-7H-1,2,5,7-tetraazabenzo[cd]azulen-7-yl)prop-2-en-1-one]
AC50 [1]: > 3 µM
AC50 [2]: 0.1 to 0.25 µM
AC50 [3]: > 0.055 µM
AC50 [4]: 0.005 to 0.015 µM

C=CC(=O)N1CCc2nn(-c3ccc(C4CC4)cc3)c3c2C(C1)N(C(=O)c1cnc(C(F)(F)F)c(C#N)c1)CC3 (centres unmarked) [Compound 112, 5-(7-acryloyl-2-(4-cyclopropylphenyl)-3,4,5,5a,6,7,8,9-octahydro-2H-1,2,5,7-tetraazabenzo[cd]azulene-5-carbonyl)-2-(trifluoromethyl)nicotino nitrile]
AC50 [1]: > 3 µM
AC50 [2]: 0.1 to 0.25 µM
AC50 [3]: > 0.055 µM
AC50 [4]: 0.005 to 0.015 µM

C=CC(=O)N1CCc2nn(-c3ccc(C4CC4)cc3)c3c2C(C1)N(C(=O)c1ccc(Br)nc1C)CC3 (centres unmarked) [Compound 114, 1-(5-(6-bromo-2-methylnicotinoyl)-2-(4-cyclopropylphenyl)-2,3,4,5,5a,6,8,9-octahydro-7H-1,2,5,7-tetraazabenzo[cd]azulen-7-yl)prop-2-en-1-one]
AC50 [1]: > 3 µM
AC50 [2]: 0.25 to 0.5 µM
AC50 [3]: > 0.055 µM
AC50 [4]: 0.005 to 0.015 µM

C=CC(=O)N1CCc2nn(-c3ccc(C4CC4)cc3)c3c2C(C1)N(C(=O)c1ccc(Br)nc1N)CC3 (centres unmarked) [Compound 117, 1-(5-(2-amino-6-bromonicotinoyl)-2-(4-cyclopropylphenyl)-2,3,4,5,5a,6,8,9-octahydro-7H-1,2,5,7-tetraazabenzo[cd]azulen-7-yl)prop-2-en-1-one]
AC50 [1]: > 3 µM
AC50 [2]: 0.001 to 0.1 µM
AC50 [3]: 0.005 to 0.015 µM
AC50 [4]: 0.0015 to 0.005 µM

C=CC(=O)N1CCc2nn(-c3ccc(C4CC4)cc3)c3c2C(C1)N(C(=O)c1cnc(C(F)(F)F)cc1N)CC3 (centres unmarked) [Compound 128, 1-(5-(4-amino-6-(trifluoromethyl)nicotinoyl)-2-(4-cyclopropylphenyl)-2,3,4,5,5a,6,8,9-octahydro-7H-1,2,5,7-tetraazabenzo[cd]azulen-7-yl)prop-2-en-1-one]
AC50 [1]: > 3 µM
AC50 [2]: 0.001 to 0.1 µM
AC50 [3]: 0.005 to 0.015 µM
AC50 [4]: < 0.0015 µM

C=CC(=O)N1CC(OC2CC2)c2nn(-c3ccc(C4CCC4)cc3)c3c2C(C1)N(C(=O)c1cnc(C(F)(F)F)cc1N)CC3 (centres unmarked) [Compound 129, 1-(5-(4-amino-6-(trifluoromethyl)nicotinoyl)-2-(4-cyclobutylphenyl)-9-cyclopropoxy-2,3,4,5,5a,6,8,9-octahydro-7H-1,2,5,7-tetraazabenzo[cd]azulen-7-yl)prop-2-en-1-one]
AC50 [1]: 1 to 3 µM
AC50 [2]: 0.001 to 0.1 µM
AC50 [3]: 0.0015 to 0.005 µM
AC50 [4]: < 0.0015 µM
